From ChEMBL document CHEMBL1201862, “PubChem BioAssay data set” (2004) come the findings set out here.

Among the test systems are MDA-MB-231; SN12C; UACC-62; EKVX; CAKI-1; ACHN; SF-295; MDA-MB-435; KM12; HOP-92; MOLT-4; NCI/ADR-RES; DU-145; RXF 393; Malme-3M; A549; A498; MDA-N; SW-620; OVCAR-5.
Holding throughout (test): NCI anticancer screen, dose series, 48 h

The structures appear in SMILES notation.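 Exposure lasted 48 hours, with cells grown in 96-well plates and compounds tested at five concentrations. GI50 marks 50% less growth.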 Active and inactive are the calls of the source. No stated cut-off is given here; in the data, active = GI50 up to about 1.1 µM and inactive = higher.

In the case of `OC(C/C(=N\N1CCCCC1)c1cccs1)(C(F)(F)F)C(F)(F)F`, the GI50 in the assay on MDA-MB-231, in the assay on SN12C, with UACC-62, with EKVX, with CAKI-1 and in the assay with ACHN was > 10 µM (inactive) throughout. In addition, the GI50 in the assay on SF-295, in the assay on MDA-MB-435, in the assay with KM12, in the assay on HOP-92, in the assay with MOLT-4 and in the assay on NCI/ADR-RES was > 10 µM (inactive) throughout. The GI50 in the assay on DU-145, with RXF 393, in the assay on Malme-3M, in the assay with A549, in the assay on A498 and in the assay with MDA-N was > 10 µM (inactive) each time. Also, the GI50 in the assay on SW-620 was > 10 µM (inactive).
For the compound `Cc1ccc(NCCN(C)C)c2c(=O)c3cc(O)ccc3oc12`, the GI50 in the assay on MDA-MB-231 is 9.04 µM (inactive); in the assay with SN12C, 7.59 µM (inactive); in the assay on UACC-62 it was 10.1 µM (inactive); in the assay with EKVX, 15.7 µM (inactive); in the assay with CAKI-1 it was 10.6 µM (inactive); in the assay with ACHN, 4.62 µM (inactive). Besides, the GI50 in the assay with SF-295 is 10.9 µM (inactive); in the assay with MDA-MB-435, 12 µM (inactive); in the assay on KM12 it was 11.2 µM (inactive); with HOP-92, 11.1 µM (inactive); in the assay with MOLT-4, 1.11 µM (active); with NCI/ADR-RES, 10.6 µM (inactive). The GI50 with DU-145 is 15.1 µM (inactive); in the assay with RXF 393, 11.9 µM (inactive); in the assay on Malme-3M, 13.9 µM (inactive); with A549 it was 6.25 µM (inactive); in the assay with OVCAR-5 it was 15.5 µM (inactive); in the assay on A498 it was 14.9 µM (inactive). Besides, the GI50 is 10.7 µM (inactive) in the assay with MDA-N and 4.12 µM (inactive) in the assay with SW-620.
In the case of `COc1cc(/C=N/c2ccccn2)cc(OC)c1OC`, the GI50 in the assay on MDA-MB-231, with SN12C, with UACC-62, in the assay on EKVX, in the assay with CAKI-1 and with ACHN was > 100 µM (inactive) in each case. The GI50 with SF-295 was > 76.9 µM (inactive); with MDA-MB-435, 24.5 µM (inactive); with KM12 it was > 100 µM (inactive); in the assay on HOP-92, > 100 µM (inactive); with MOLT-4, > 100 µM (inactive); in the assay on NCI/ADR-RES, > 100 µM (inactive). Also, the GI50 with DU-145 is > 100 µM (inactive); in the assay with RXF 393 it was 58.7 µM (inactive); in the assay on Malme-3M, > 100 µM (inactive); in the assay with A549, > 100 µM (inactive); in the assay with OVCAR-5 it was > 100 µM (inactive); in the assay with A498 it was > 100 µM (inactive). The GI50 in the assay on MDA-N was 28.3 µM (inactive); in the assay with SW-620 it was > 100 µM (inactive).
For the compound `COc1ccccc1NC(=O)CC(=O)N1N=C(C)C(/N=N/c2ccc(C(=O)O)cc2)C1=O` (stereo not given), the GI50 in the assay on MDA-MB-231 is > 100 µM (inactive); with SN12C, > 100 µM (inactive); in the assay on UACC-62, > 100 µM (inactive); in the assay on EKVX it was 28.6 µM (inactive); in the assay with CAKI-1, > 100 µM (inactive); with ACHN, > 100 µM (inactive). Further, the GI50 in the assay on SF-295 was > 100 µM (inactive); in the assay on MDA-MB-435 it was > 100 µM (inactive); with KM12, > 100 µM (inactive); in the assay on HOP-92 it was 28.2 µM (inactive); with NCI/ADR-RES, > 100 µM (inactive); in the assay on DU-145, > 100 µM (inactive). In addition, the GI50 in the assay with RXF 393, in the assay on Malme-3M, in the assay with A549, with OVCAR-5, in the assay with A498 and in the assay with MDA-N was > 100 µM (inactive) throughout. For the same compound, the GI50 in the assay with SW-620 was > 100 µM (inactive).
`CO[C@@](c1ccccc1)(c1nc(C#N)c(N)o1)C(F)(F)F`: the GI50 with MDA-MB-231 was > 100 µM (inactive); in the assay on SN12C, > 100 µM (inactive); with UACC-62, 77.4 µM (inactive); with EKVX, > 100 µM (inactive); in the assay on CAKI-1, > 100 µM (inactive); in the assay with ACHN it was > 100 µM (inactive). Moreover, the GI50 was > 100 µM (inactive) with SF-295; > 100 µM (inactive) in the assay with MDA-MB-435; > 100 µM (inactive) with KM12; 44.7 µM (inactive) in the assay on HOP-92; 82.2 µM (inactive) with MOLT-4; > 100 µM (inactive) in the assay on NCI/ADR-RES. The GI50 with DU-145, in the assay on RXF 393, in the assay on Malme-3M, in the assay on A549, in the assay on A498 and with MDA-N was > 100 µM (inactive) throughout. The GI50 with SW-620 is 86.5 µM (inactive).
As to `O=C(CCCN1CCC2(CC1)CC(=O)N(N1CCCCCC1)C2=O)c1ccccc1`, the GI50 in the assay on MDA-MB-231, in the assay with SN12C, in the assay with UACC-62, in the assay with EKVX, in the assay on CAKI-1 and in the assay with ACHN was > 100 µM (inactive) each time. In addition, the GI50 in the assay on SF-295, in the assay on MDA-MB-435, in the assay with HOP-92, in the assay with MOLT-4, in the assay on NCI/ADR-RES and in the assay with DU-145 was > 100 µM (inactive) each time. Moreover, the GI50 in the assay on RXF 393, in the assay on Malme-3M, in the assay with A549, in the assay on OVCAR-5, in the assay on A498 and in the assay with MDA-N was > 100 µM (inactive) throughout.
On to `O=S(=O)(c1ccccc1)C(c1ccc2ccccc2n1)S(=O)(=O)c1ccccc1`, for which the GI50 in the assay with MDA-MB-231, in the assay on SN12C, in the assay with EKVX, with CAKI-1, in the assay with ACHN and with SF-295 was > 100 µM (inactive) each time. Moreover, the GI50 in the assay with MDA-MB-435 is > 10 µM (inactive); with KM12 it was > 100 µM (inactive); in the assay with HOP-92, > 100 µM (inactive); with MOLT-4 it was > 100 µM (inactive); in the assay on NCI/ADR-RES, > 100 µM (inactive); with DU-145, > 100 µM (inactive). Further, the GI50 in the assay with RXF 393, with Malme-3M, with A549, with OVCAR-5, with A498 and in the assay with MDA-N was > 100 µM (inactive) in each case. Moreover, in the assay on SW-620, the GI50 was > 100 µM (inactive).
In the case of `COc1c(OC)c(OC)c(-c2cc(=O)c3c(OC)c(OC)c(OC)c(OC)c3o2)c(OC)c1OC`, the GI50 with MDA-MB-231 was 29.9 µM (inactive); in the assay with SN12C, 50.5 µM (inactive); with UACC-62 it was 34.3 µM (inactive); in the assay with EKVX it was 59.8 µM (inactive); in the assay on CAKI-1, 43.4 µM (inactive); with ACHN, 32.7 µM (inactive). Moreover, the GI50 with SF-295 was 40.2 µM (inactive); in the assay with MDA-MB-435, 34.5 µM (inactive); in the assay on HOP-92, 21.3 µM (inactive); with MOLT-4, 32.7 µM (inactive); with NCI/ADR-RES it was 23.9 µM (inactive); in the assay with DU-145 it was 62.5 µM (inactive). For the same compound, the GI50 is 27.3 µM (inactive) with RXF 393; 47 µM (inactive) in the assay on Malme-3M; 35 µM (inactive) in the assay on A549; > 100 µM (inactive) in the assay on OVCAR-5; 31.3 µM (inactive) in the assay on A498; 38 µM (inactive) in the assay on MDA-N. For the same compound, the GI50 in the assay on SW-620 was 30 µM (inactive).
As to `O=C1Nc2ccc(Br)cc2/C1=N/NC(=S)Nc1ccc([N+](=O)[O-])cc1`, the GI50 with MDA-MB-231 is 16.7 µM (inactive); in the assay with SN12C, 8.02 µM (inactive); in the assay with UACC-62 it was 5.5 µM (inactive); with CAKI-1, 4.06 µM (inactive); with ACHN, 5.19 µM (inactive); with SF-295 it was 6.08 µM (inactive). Further, the GI50 in the assay with MDA-MB-435 was 6.41 µM (inactive); in the assay on KM12 it was 5.94 µM (inactive); in the assay with HOP-92, 9.77 µM (inactive); in the assay with MOLT-4, 5.31 µM (inactive); in the assay on NCI/ADR-RES, 2.01 µM (inactive); in the assay with DU-145, 11.9 µM (inactive). In addition, the GI50 was 11.8 µM (inactive) with RXF 393; 5.98 µM (inactive) in the assay with Malme-3M; 13.2 µM (inactive) with OVCAR-5; 5.56 µM (inactive) in the assay with A498; 7.98 µM (inactive) in the assay with MDA-N; 6.81 µM (inactive) with SW-620.
With `COc1ccc(-c2csc(-n3c(-c4ccccc4)nc4c(Br)cc(Br)cc4c3=O)n2)cc1`, the GI50 was 28.5 µM (inactive) in the assay with MDA-MB-231; 28.5 µM (inactive) in the assay on UACC-62; 4.52 µM (inactive) in the assay with EKVX; 35.7 µM (inactive) in the assay with CAKI-1; 25.1 µM (inactive) in the assay with ACHN; 25.2 µM (inactive) in the assay with SF-295. For the same compound, the GI50 with MDA-MB-435 is 38.3 µM (inactive); in the assay on KM12, 33.6 µM (inactive); with HOP-92, 5.14 µM (inactive); in the assay with MOLT-4, 17.8 µM (inactive); with NCI/ADR-RES it was 19.6 µM (inactive); in the assay on DU-145, 39.2 µM (inactive). Also, the GI50 is 26.3 µM (inactive) with RXF 393; 26 µM (inactive) in the assay on Malme-3M; 25.5 µM (inactive) in the assay on A549; 20.9 µM (inactive) in the assay with OVCAR-5; 15.5 µM (inactive) with A498; 25.4 µM (inactive) in the assay on MDA-N. In addition, the GI50 in the assay on SW-620 was 33.6 µM (inactive).
